Experimental data published in patent publication US11840528B2 (Hoffmann-La Roche Inc., priority 2018, dated 2023).

How the values were obtained:
[1] = molecular target: T1, h-GABA-A α5β3γ2 (Homo sapiens, UniProt P18507+P31644); assay: [3H]flumazenil competition binding assay, membranes of HEK293 cells expressing GABAA receptors; conditions: displacement of [3H]-Flumazenil 0.5 nM, HEK293 cells expressing human receptors, mean of two determinations; Table 1
Description: The affinity of compounds at GABAA receptor subtypes was measured by competition for [3H]flumazenil (85 Ci/mmol; Roche) binding to HEK293 cells expressing rat (stably transfected) or human (transiently transfected) receptors of composition α1β3γ2, α2β3γ2, α3β3γ2 and α5β3γ2.
Cell pellets were suspended in Krebs-tris buffer (4.8 mM KCl, 1.2 mM CaCl2), 1.2 mM MgCl2, 120 mM NaCl, 15 mM Tris; pH 7.5; binding assay buffer), homogenized by polytron for ca. 20 sec on ice and centrifuged for 60 min at 4° C. (50000 g; Sorvall, rotor: SM24=20000 rpm). The cell pellets were resuspended in Krebs-tris buffer and homogenized by polytron for ca. 15 sec on ice. Protein was measured (Bradford method, Bio-Rad) and aliquots of 1 mL were prepared and stored at −80° C.
Assays were incubated to equilibrium for 1 hour at 4° C. and harvested onto GF/C uni-filters (Packard) by filtration using a Packard harvester and washing with ice-cold wash buffer (50 mM Tris; pH 7.5). After drying, filter-retained radioactivity was detected by liquid scintillation counting. Ki values were calculated using Excel-Fit (Microsoft) and are the means of two determinations.

[2] = molecular target: T1, h-GABA-A α5β3γ2; assay: Two-electrode voltage clamp electrophysiology in Xenopus laevis oocytes expressing GABAA receptors, modulation of GABA EC20 current; assay type: cell-based; design: host or cells: Xenopus laevis oocytes micro-injected with RNA transcripts of the subunits; conditions: Table 1; for Efficacy (GABA) %: % modulation of GABA EC20 = 100*(Fold increase-1); for Fold increase h-GABA-A α5β3γ2 oocyte: test compound at approx. 30 fold its Ki, GABA at EC20
Description: Xenopus laevis oocytes at maturation stages V-VI were used for the expression of cloned mRNA encoding GABAA receptor subunits. Oocytes ready for RNA micro-injection were bought from Ecocyte, Castrop-Rauxel, Germany and stored in modified Barth's medium (composition in mM: NaCl 88, KCl 1, NaHCO32.4, HEPES 10, MgSO4 0.82, CaNO3 0.33, CaCl2 0.33, pH=7.5) at 20° C. until the experiment.
Oocytes were plated in 96-well plates to be used in an automated instrument (Robo-ocyte, MultiChannelSystems, Reutlingen, Germany) for microinjection and electrophysiological recordings. Approximately 50 nl of an aqueous solution containing the RNA transcripts for the subunits of the desired GABAA receptor was injected into each oocyte. RNA concentrations ranged between 0.3 and 16 ng/μl/subunit and were adjusted in pilot experiments to obtain GABA responses of a suitable size and a maximal effect of the reference modulator, Beta-CCM (β-CCM), a betacarboline negative allosteric modulator (NAM) at the GABAA receptor benzodiazepine (BZD) binding site or Midazolam, a benzodiazepine positive allosteric modulator (PAM) at the GABAA receptor benzodiazepine (BZD) binding site. The concentration of the γ2 subunit encoding RNA usually was 5- to 10-fold higher than the RNAs encoding the other subunits. Oocytes were kept in modified Barth's medium (composition in mM: NaCl 88, KCl 1, NaHCO3 4, HEPES 10, MgSO4 0.82, CaNO3 0.33, CaCl2) 0.33, pH=7.5) at 20° C. until the experiment.
Electrophysiological experiments were performed on days 3 to 5 after the micro-injection of mRNA. During the experiment the oocytes were constantly superfused by a solution containing (in mM) NaCl 90, KCl 1, HEPES 5, MgCl2 1, CaCl2) 1 (pH 7.4). Oocytes were impaled by two glass microelectrodes (resistance: 0.4 MΩ) which were filled with a solution containing KCl 1M+K-acetate 1.5 M and voltage-clamped to −80 mV. The recordings were performed at room temperature using the Roboocyte two-electrode voltage clamp system (Multichannelsystem). After an initial equilibration period of 1.5 min GABA was added for 1.5 min at a concentration evoking approximately 20% of a maximal current response (EC20). After another rest interval of 2.5 min GABA was again added evoking a response of similar amplitude and shape. 0.5 min after the onset of this second GABA application the test compound, at a concentration corresponding to approximatively 30 fold its Ki, was added while GABA was still present. Current traces were recorded at a digitization rate of 10 Hz during and shortly before and after the GABA application.
Each compound and concentration was tested on at least 3 oocytes. Different oocytes were used for different compound concentrations. β-CCM, a negative allosteric modulator, or Midazolam, a positive allosteric modulators, were tested on a few (3-6) oocytes on each 96-well plate for a positive control at a maximally effective. β-CCM inhibited the GABA-evoked current by approximatively 50% (Fold increase ˜0.5), while Midazolam potentiated the GABA-induced current by approximatively 150% (Fold increase ˜2.5).
For the analysis, the digitized current traces of the first and second GABA response were superimposed and, if necessary, rescaled to equal maximal amplitudes. The ratio between the two responses during the time interval of test compound application was calculated point by point. The extremum of the resulting “ratio trace” was taken as the efficacy (“Fold increase”) of the compound expressed as “% modulation of GABA EC20” (100*(Fold increase-1)).

Row | Compound | Ki [1] [nM] | Efficacy (GABA) % [2] [%] | Fold increase h-GABA-A α5β3γ2 oocyte [2]
1 | Cc1onc(-c2ccc(F)cc2)c1Cn1ncc(N2C[C@@H](C)O[C@@H](C)C2)cc1=O [Example 12, 5-(cis-2,6-Dimethylmorpholino)-2-((3-(4-fluorophenyl)-5-methylisoxazol-4-yl)methyl)pyridazin-3(2H)-one] | 3.8 | 114 | 2.14
2 | Cc1onc(-c2ccc(Cl)cn2)c1Cn1ncc(N2C[C@@H](C)O[C@@H](C)C2)cc1=O [Example 13, 2-((3-(5-Chloropyridin-2-yl)-5-methylisoxazol-4-yl)methyl)-5-(cis-2,6-dimethylmorpholino)pyridazin-3(2H)-one] | 0.7 | 94 | 1.94
3 | C[C@@H]1CN(c2cnn(Cc3c(-c4ccc(Cl)cn4)noc3C3CC3)c(=O)c2)C[C@H](C)O1 [Example 14, 2-((3-(5-Chloropyridin-2-yl)-5-cyclopropylisoxazol-4-yl)methyl)-5-(cis-2,6-dimethylmorpholino)pyridazin-3(2H)-one] | 1.5 | 166 | 2.66
4 | Cc1onc(-c2ccc(F)cc2)c1Cn1ncc(N2CCN(C(=O)C3(C)CC3)CC2)cc1=O [Example 15, 2-((3-(4-Fluorophenyl)-5-methylisoxazol-4-yl)methyl)-5-(4-(1-methylcyclopropanecarbonyl)piperazin-1-yl)pyridazin-3(2H)-one] | 35.2 | 120 | 2.2
5 | Cc1onc(-c2ccc(Cl)cn2)c1Cn1ncc(N2CCN(C(=O)C3(C)CC3)CC2)cc1=O [Example 16, 2-((3-(5-Chloropyridin-2-yl)-5-methylisoxazol-4-yl)methyl)-5-(4-(1-methylcyclopropanecarbonyl)piperazin-1-yl)pyridazin-3(2H)-one] | 2.6 | 139 | 2.39
6 | Cc1ccc(-c2noc(C)c2Cn2ncc(N3CCOCC3)cc2=O)cn1 [Example 22, 2-[[5-methyl-3-(6-methyl-3-pyridyl)isoxazol-4-yl]methyl]-5-morpholino-pyridazin-3-one] | 3.2 | 166 | 2.66
7 | Cc1ccc(-c2noc(C)c2Cn2ncc(N3CCC(C(F)(F)F)CC3)cc2=O)cn1 [Example 24, 2-[[5-methyl-3-(6-methyl-3-pyridyl)isoxazol-4-yl]methyl]-5-[4-(trifluoromethyl)-1-piperidyl]pyridazin-3-one] | 14.6 | 203 | 3.03
8 | O=C(C1CC1)N1CCN(c2cnn(Cc3c(-c4ccc(Cl)cn4)noc3C3CC3)c(=O)c2)CC1 [Example 25, 2-((3-(5-Chloropyridin-2-yl)-5-cyclopropylisoxazol-4-yl)methyl)-5-(4-(cyclopropanecarbonyl)piperazin-1-yl)pyridazin-3(2H)-one] | 12.5 | 266 | 3.66
9 | CC1(C(=O)N2CCN(c3cnn(Cc4c(-c5ccc(Cl)cn5)noc4C4CC4)c(=O)c3)CC2)CC1 [Example 26, 2-((3-(5-Chloropyridin-2-yl)-5-cyclopropylisoxazol-4-yl)methyl)-5-(4-(1-methylcyclopropanecarbonyl)piperazin-1-yl)pyridazin-3(2H)-one] | 28.4 | 247 | 3.47
10 | Cc1ccc(-c2noc(C)c2Cn2ncc(N3CCC(C(=O)NC4CC4)CC3)cc2=O)cn1 [Example 27, N-cyclopropyl-1-[1-[[5-methyl-3-(6-methyl-3-pyridyl)isoxazol-4-yl]methyl]-6-oxo-pyridazin-4-yl]piperidine-4-carboxamide] | 14.2 | 100 | 2
11 | Cc1ccc(-c2noc(C)c2Cn2ncc(N3C[C@H]4CC[C@@H](C3)O4)cc2=O)cn1 [Example 28, 2-[[5-methyl-3-(6-methyl-3-pyridyl)isoxazol-4-yl]methyl]-5-[(1R,5S)-8-oxa-3-azabicyclo[3.2.1]octan-3-yl]pyridazin-3-one] | 0.6 | 136 | 2.36
12 | Cc1ccc(-c2noc(C)c2Cn2ncc(N3CCN(CC(F)(F)F)CC3)cc2=O)cn1 [Example 31, 2-[[5-methyl-3-(6-methyl-3-pyridyl)isoxazol-4-yl]methyl]-5-[4-(2,2,2-trifluoroethyl)piperazin-1-yl]pyridazin-3-one] | 13.5 | 145 | 2.45
13 | Cc1ccc(-c2nocc2Cn2ncc(N3C[C@@H](C)O[C@@H](C)C3)cc2=O)cn1 [Example 32, 5-(cis-2,6-dimethylmorpholin-4-yl)-2-[[3-(6-methyl-3-pyridyl)isoxazol-4-yl]methyl]pyridazin-3-one] | 12.7 | 288 | 3.88
14 | Cc1ccc(-c2noc(C)c2Cn2ncc(N3C4COCC3C4)cc2=O)cn1 [Example 33, 2-[[5-methyl-3-(6-methyl-3-pyridyl)isoxazol-4-yl]methyl]-5-(3-oxa-6-azabicyclo[3.1.1]heptan-6-yl)pyridazin-3-one] | 3.2 | 150 | 2.5
15 | Cc1ccc(-c2noc(C)c2Cn2ncc(N3CCC(C#N)CC3)cc2=O)cn1 [Example 34, 1-[1-[[5-methyl-3-(6-methyl-3-pyridyl)isoxazol-4-yl]methyl]-6-oxo-pyridazin-4-yl]piperidine-4-carbonitrile] | 4.3 | 222 | 3.22
16 | Cc1ccc(-c2noc(C)c2Cn2ncc(N3C4CCC3COC4)cc2=O)cn1 [Example 35, 2-[[5-methyl-3-(6-methyl-3-pyridyl)isoxazol-4-yl]methyl]-5-(3-oxa-8-azabicyclo[3.2.1]octan-8-yl)pyridazin-3-one] | 0.8 | 179 | 2.79
17 | Cc1ccc(-c2noc(C)c2Cn2ncc(N3CCN(C4CC4)CC3)cc2=O)cn1 [Example 36, 5-(4-cyclopropylpiperazin-1-yl)-2-[[5-methyl-3-(6-methyl-3-pyridyl)isoxazol-4-yl]methyl]pyridazin-3-one] | 13.8 | 145 | 2.45
18 | Cc1ccc(-c2noc(C)c2Cn2ncc(N3CC4(COC4)C3)cc2=O)cn1 [Example 38, 2-[[5-methyl-3-(6-methyl-3-pyridyl)isoxazol-4-yl]methyl]-5-(2-oxa-6-azaspiro[3.3]heptan-6-yl)pyridazin-3-one] | 38.4 | 181 | 2.81
